“And” between values parts separate entries of the source, which are not always exact repeats. Equal entries are not always repeated.
Tested on: transgenic T2 Arabidopsis plants
Experiment: Greenhouse spray of transgenic T2 Arabidopsis plants, herbicide injury 0 to 100% phytotox rating (Table A)
Format: in vivo
Details: 14 days after treatment
Method: Additionally, transgenic T2 Arabidopsis plants are tested for improved tolerance to herbicides in greenhouse studies with the following herbicides: methyl 2-[2-chloro-5-[3-chloro-5-(trifluoromethyl)-2-pyridyl]-4-fluoro-phenoxy]-2-methoxy-acetate, and photosynthesis inhibitor diuron as negative control.
Table A: Transgenic T2 Arabidopsis plants, four weeks old, were sprayed in the greenhouse with the indicated amount of compound+1% (v/v) MSO. Herbicide injury was evaluated 14 days after treatment with a 0 to 100% phytotox rating scale where 0 is no injury relative to an unsprayed wild type check and 100% is completely dead.

With `COC(=O)C(OC)Oc1cc(-c2ncc(C(F)(F)F)cc2Cl)c(F)cc1Cl` (stereo not drawn) [methyl 2-[2-chloro-5-[3-chloro-5-(trifluoromethyl)-2-pyridyl]-4-fluoro-phenoxy]-2-methoxy-acetate] the “Herbicide injury, 0 to 100% phytotox rating” value (construct ALOMY_PPO2 F438I, 50 g ai/ha + 1% (v/v) MSO) was 48%, the “Herbicide injury, 0 to 100% phytotox rating” value (construct ALOMY_PPO2 F438I, 100 g ai/ha + 1% (v/v) MSO) was 64% and the “Herbicide injury, 0 to 100% phytotox rating” value (construct ALOMY_PPO2 F438I, 200 g ai/ha + 1% (v/v) MSO) was 79%. For the same molecule, the “Herbicide injury, 0 to 100% phytotox rating” value (construct ALOMY_PPO2 F438M, 50 g ai/ha + 1% (v/v) MSO) was 30%, the “Herbicide injury, 0 to 100% phytotox rating” value (construct ALOMY_PPO2 F438M, 100 g ai/ha + 1% (v/v) MSO) was 43% and the “Herbicide injury, 0 to 100% phytotox rating” value (construct ALOMY_PPO2 F438M, 200 g ai/ha + 1% (v/v) MSO) was 69%. For the same molecule, the “Herbicide injury, 0 to 100% phytotox rating” value (construct ALOMY_PPO2 F438V, 50 g ai/ha + 1% (v/v) MSO) was 36%, the “Herbicide injury, 0 to 100% phytotox rating” value (construct ALOMY_PPO2 F438V, 100 g ai/ha + 1% (v/v) MSO) was 55% and the “Herbicide injury, 0 to 100% phytotox rating” value (construct ALOMY_PPO2 F438V, 200 g ai/ha + 1% (v/v) MSO) was 69%. The “Herbicide injury, 0 to 100% phytotox rating” value (construct ALOMY_PPO2 L415A_F438M, 50 g ai/ha + 1% (v/v) MSO) was 23%, the “Herbicide injury, 0 to 100% phytotox rating” value (construct ALOMY_PPO2 L415A_F438M, 100 g ai/ha + 1% (v/v) MSO) was 28% and the “Herbicide injury, 0 to 100% phytotox rating” value (construct ALOMY_PPO2 L415A_F438M, 200 g ai/ha + 1% (v/v) MSO) was 39%. The “Herbicide injury, 0 to 100% phytotox rating” value (construct ALOMY_PPO2 L415E_F438M, 50 g ai/ha + 1% (v/v) MSO) was 15%, the “Herbicide injury, 0 to 100% phytotox rating” value (construct ALOMY_PPO2 L415E_F438M, 100 g ai/ha + 1% (v/v) MSO) was 29% and the “Herbicide injury, 0 to 100% phytotox rating” value (construct ALOMY_PPO2 L415E_F438M, 200 g ai/ha + 1% (v/v) MSO) was 43%. For the same molecule, the “Herbicide injury, 0 to 100% phytotox rating” value (construct ALOMY_PPO2 L415G_F438M (two table lines), 50 g ai/ha + 1% (v/v) MSO) was 36% and 26%, the “Herbicide injury, 0 to 100% phytotox rating” value (construct ALOMY_PPO2 L415G_F438M (two table lines), 100 g ai/ha + 1% (v/v) MSO) was 46% and 34% and the “Herbicide injury, 0 to 100% phytotox rating” value (construct ALOMY_PPO2 L415G_F438M (two table lines), 200 g ai/ha + 1% (v/v) MSO) was 59% and 46%. The “Herbicide injury, 0 to 100% phytotox rating” value (construct ALOMY_PPO2 L415Q_F438M, 50 g ai/ha + 1% (v/v) MSO) was 18%, the “Herbicide injury, 0 to 100% phytotox rating” value (construct ALOMY_PPO2 L415Q_F438M, 100 g ai/ha + 1% (v/v) MSO) was 23% and the “Herbicide injury, 0 to 100% phytotox rating” value (construct ALOMY_PPO2 L415Q_F438M, 200 g ai/ha + 1% (v/v) MSO) was 41%. For the same molecule, the “Herbicide injury, 0 to 100% phytotox rating” value (construct ALOMY_PPO2 R137L_F438L, 50 g ai/ha + 1% (v/v) MSO) was 55%, the “Herbicide injury, 0 to 100% phytotox rating” value (construct ALOMY_PPO2 R137L_F438L, 100 g ai/ha + 1% (v/v) MSO) was 59% and the “Herbicide injury, 0 to 100% phytotox rating” value (construct ALOMY_PPO2 R137L_F438L, 200 g ai/ha + 1% (v/v) MSO) was 71%. For the same molecule, the “Herbicide injury, 0 to 100% phytotox rating” value (construct ALOMY_PPO2 R137L_F438M, 50 g ai/ha + 1% (v/v) MSO) was 50%, the “Herbicide injury, 0 to 100% phytotox rating” value (construct ALOMY_PPO2 R137L_F438M, 100 g ai/ha + 1% (v/v) MSO) was 68% and the “Herbicide injury, 0 to 100% phytotox rating” value (construct ALOMY_PPO2 R137L_F438M, 200 g ai/ha + 1% (v/v) MSO) was 70%. The “Herbicide injury, 0 to 100% phytotox rating” value (construct ALOMY_PPO2 R137L_F438V, 50 g ai/ha + 1% (v/v) MSO) was 39%, the “Herbicide injury, 0 to 100% phytotox rating” value (construct ALOMY_PPO2 R137L_F438V, 100 g ai/ha + 1% (v/v) MSO) was 58% and the “Herbicide injury, 0 to 100% phytotox rating” value (construct ALOMY_PPO2 R137L_F438V, 200 g ai/ha + 1% (v/v) MSO) was 65%. The “Herbicide injury, 0 to 100% phytotox rating” value (construct AMATU_PPO2 L397C_F420M, 50 g ai/ha + 1% (v/v) MSO) was 58%, the “Herbicide injury, 0 to 100% phytotox rating” value (construct AMATU_PPO2 L397C_F420M, 100 g ai/ha + 1% (v/v) MSO) was 63% and the “Herbicide injury, 0 to 100% phytotox rating” value (construct AMATU_PPO2 L397C_F420M, 200 g ai/ha + 1% (v/v) MSO) was 71%. The “Herbicide injury, 0 to 100% phytotox rating” value (construct AMATU_PPO2 L397D_F420V, 50 g ai/ha + 1% (v/v) MSO) was 49%, the “Herbicide injury, 0 to 100% phytotox rating” value (construct AMATU_PPO2 L397D_F420V, 100 g ai/ha + 1% (v/v) MSO) was 59% and the “Herbicide injury, 0 to 100% phytotox rating” value (construct AMATU_PPO2 L397D_F420V, 150 g ai/ha + 1% (v/v) MSO) was 67%. The “Herbicide injury, 0 to 100% phytotox rating” value (construct AMATU_PPO2 L397E_F420M, 50 g ai/ha + 1% (v/v) MSO) was 59%, the “Herbicide injury, 0 to 100% phytotox rating” value (construct AMATU_PPO2 L397E_F420M, 100 g ai/ha + 1% (v/v) MSO) was 68% and the “Herbicide injury, 0 to 100% phytotox rating” value (construct AMATU_PPO2 L397E_F420M, 200 g ai/ha + 1% (v/v) MSO) was 79%. The “Herbicide injury, 0 to 100% phytotox rating” value (construct AMATU_PPO2 L397E_F420V, 50 g ai/ha + 1% (v/v) MSO) was 60%, the “Herbicide injury, 0 to 100% phytotox rating” value (construct AMATU_PPO2 L397E_F420V, 100 g ai/ha + 1% (v/v) MSO) was 76% and the “Herbicide injury, 0 to 100% phytotox rating” value (construct AMATU_PPO2 L397E_F420V, 200 g ai/ha + 1% (v/v) MSO) was 85%. For the same molecule, the “Herbicide injury, 0 to 100% phytotox rating” value (construct AMATU_PPO2 L397G_F420M, 50 g ai/ha + 1% (v/v) MSO) was 40%, the “Herbicide injury, 0 to 100% phytotox rating” value (construct AMATU_PPO2 L397G_F420M, 100 g ai/ha + 1% (v/v) MSO) was 56% and the “Herbicide injury, 0 to 100% phytotox rating” value (construct AMATU_PPO2 L397G_F420M, 200 g ai/ha + 1% (v/v) MSO) was 66%.
